Measured values taken from PubChem BioAssay AID330 (DTP/NCI, 2004).
Several values for one entry are separate records, joined by “and”; a condition that tells them apart may be missing. Equal values may be shown once. Inconclusive results and toxic doses are left out.

System: P388 leukemia ip, CD2F1 mice, survival T/C
Assay: NCI In Vivo Anticancer Drug Screen. Data for tumor model P388 Leukemia (intraperitoneal) in CD2F1 (CDF1) mice
Conditions: endpoint: median survival time, higher = longer survival
Procedure, shortened: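 Mice carrying the transplanted tumor received test compound or vehicle. Survival was recorded in each group, and the value is the treated-group measurement divided by that of the vehicle-treated control group.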

[1] = dose: 100.0 mg/kg/injection, schedule: Q04DX003 (ip), vehicle: saline with Tween-80
[2] = dose: 200.0 mg/kg/injection, schedule: Q04DX003 (ip), vehicle: saline with Tween-80
[3] = dose: 400.0 mg/kg/injection, schedule: Q04DX003 (ip), vehicle: saline with Tween-80
[4] = dose: 60.0 mg/kg/injection, schedule: Q01DX005 (ip), vehicle: saline with Tween-80
[5] = dose: 120.0 mg/kg/injection, schedule: Q01DX005 (ip), vehicle: saline with Tween-80
[6] = dose: 240.0 mg/kg/injection, schedule: Q01DX005 (ip), vehicle: saline with Tween-80
[7] = dose: 100.0 mg/kg/injection, schedule: Q01DX001 (ip), vehicle: saline with Tween-80
[8] = dose: 50.0 mg/kg/injection, schedule: Q01DX005 (ip), vehicle: saline with Tween-80
[9] = dose: 100.0 mg/kg/injection, schedule: Q01DX005 (ip), vehicle: saline with Tween-80
[10] = dose: 200.0 mg/kg/injection, schedule: Q01DX005 (ip), vehicle: saline with Tween-80
[11] = dose: 50.0 mg/kg/injection, schedule: Q01DX005 (ip), vehicle: saline
[12] = dose: 100.0 mg/kg/injection, schedule: Q01DX005 (ip), vehicle: saline
[13] = dose: 200.0 mg/kg/injection, schedule: Q01DX005 (ip), vehicle: saline

In the case of `CC1=CC(=C2C(=O)c3ccccc3C2=O)C=CN1CCCN1CCCCC1`, the T/C (dose: 50.0 mg/kg/injection, schedule: Q01DX009 (ip), vehicle: saline) is reported as 103 % of control and 119 % of control, the T/C (dose: 100.0 mg/kg/injection, schedule: Q01DX009 (ip), vehicle: saline) is reported as 101 % of control and 106 % of control and the T/C (dose: 200.0 mg/kg/injection, schedule: Q01DX009 (ip), vehicle: saline) is reported as 106 % of control and 123 % of control. For the same compound, the T/C (dose: 400.0 mg/kg/injection, schedule: Q01DX009 (ip), vehicle: saline) was 100 % of control.

`CC1(C)CC(=O)C([Se]C2=C(O)CC(C)(C)CC2=O)=C(O)C1` was tested, and the T/C (dose: 6.25 mg/kg/injection, schedule: Q01DX009 (ip), vehicle: saline) was 101 % of control, the T/C (dose: 12.5 mg/kg/injection, schedule: Q01DX009 (ip), vehicle: saline) was 104 % of control and the T/C (dose: 25.0 mg/kg/injection, schedule: Q01DX009 (ip), vehicle: saline) was 111 % of control.

`Nc1cc(N)c([N+](=O)[O-])cc1[N+](=O)[O-]` was tested, and the T/C [1] was 91 % of control, the T/C [2] was 100 % of control and the T/C [3] was 87 % of control.

For `Cc1cccc(Cl)c1NC(=O)Nc1ccc(Cl)cc1C(=O)c1ccccc1`, the T/C [4] was 99 % of control, the T/C [5] was 94 % of control and the T/C [6] was 101 % of control.

`O=S(=O)(O)Oc1c(S(=O)(=O)O)c(S(=O)(=O)O)c(O)c(S(=O)(=O)O)c1S(=O)(=O)O` was tested, and the T/C (dose: 25.0 mg/kg/injection, schedule: Q01DX001 (ip), vehicle: saline) was 111 % of control, the T/C (dose: 50.0 mg/kg/injection, schedule: Q01DX001 (ip), vehicle: saline) was 113 % of control and the T/C [7] was 103 % of control. For the same compound, the T/C (dose: 100.0 mg/kg/injection, schedule: Q01DX001 (ip), vehicle: saline) was 94 % of control.

For `CCOC(=O)N1OC2C=CC1CC2` (stereo not given), the T/C [4] was 97 % of control, the T/C [5] was 102 % of control and the T/C [6] was 100 % of control.

With `O=C1C2C3C4C5C(C2C5(Br)C32OCCO2)C14Br` (stereo not given) the T/C (dose: 100.0 mg/kg/injection, schedule: Q04DX003 (ip), vehicle: Klucel (hydroxypropylcellulose) (HPC)) was 106 % of control, the T/C (dose: 200.0 mg/kg/injection, schedule: Q04DX003 (ip), vehicle: Klucel (hydroxypropylcellulose) (HPC)) was 107 % of control and the T/C (dose: 400.0 mg/kg/injection, schedule: Q04DX003 (ip), vehicle: Klucel (hydroxypropylcellulose) (HPC)) was 113 % of control.

In the case of `CC(=O)OC1(c2ccccc2)N=C(c2ccccc2)N=C1c1ccccc1` (stereo not given), the T/C (dose: 60.0 mg/kg/injection, schedule: Q01DX005 (ip), vehicle: Klucel (hydroxypropylcellulose) (HPC)) is reported as 106 % of control, the T/C (dose: 120.0 mg/kg/injection, schedule: Q01DX005 (ip), vehicle: Klucel (hydroxypropylcellulose) (HPC)) is reported as 110 % of control and the T/C (dose: 240.0 mg/kg/injection, schedule: Q01DX005 (ip), vehicle: Klucel (hydroxypropylcellulose) (HPC)) is reported as 105 % of control.

`CN1C2CCC1c1c([nH]c3ccccc13)C2` (stereo not given) was tested, and the T/C [4] was 94 % of control and the T/C [5] was 94 % of control.

`O=C1ON=C(COc2ccccc2)/C1=C\c1ccc(Cl)cc1` was tested, and the T/C (dose: 15.0 mg/kg/injection, schedule: Q01DX005 (ip), vehicle: saline with Tween-80) was 105 % of control, the T/C (dose: 30.0 mg/kg/injection, schedule: Q01DX005 (ip), vehicle: saline with Tween-80) was 101 % of control and the T/C [4] was 104 % of control.

For `CCN(CC)C1CS(=O)(=O)OC2=C1CSCC2` (stereo not given), the T/C [1] was 102 % of control, the T/C [2] was 100 % of control and the T/C [3] was 95 % of control.

With `COc1cccc2c1C(=O)c1c(O)c3c(c(O)c1C2=O)C[C@@](O)(C(C)=O)C[C@@H]3OC1CC(NCc2ccccc2)C(O)C(C)O1` (stereo not given in full) the T/C (dose: 0.78 mg/kg/injection, schedule: Q01DX009 (ip), vehicle: water) was 114 % of control, the T/C (dose: 1.56 mg/kg/injection, schedule: Q01DX009 (ip), vehicle: water) was 161 % of control and 162 % of control and the T/C (dose: 2.35 mg/kg/injection, schedule: Q04DX003 (ip), vehicle: water) was 106 % of control. For the same compound, the T/C (dose: 3.13 mg/kg/injection, schedule: Q01DX009 (ip), vehicle: water) was 166 % of control and 185 % of control, the T/C (dose: 6.48 mg/kg/injection, schedule: Q04DX003 (ip), vehicle: water) was 166 % of control and the T/C (dose: 9.4 mg/kg/injection, schedule: Q04DX003 (ip), vehicle: water) was 153 % of control. The T/C (dose: 10.8 mg/kg/injection, schedule: Q04DX003 (ip), vehicle: water) was 204 % of control, the T/C (dose: 12.5 mg/kg/injection, schedule: Q01DX009 (ip), vehicle: water) was 94 % of control and the T/C (dose: 18.0 mg/kg/injection, schedule: Q04DX003 (ip), vehicle: water) was 115 % of control. For the same compound, the T/C (dose: 18.8 mg/kg/injection, schedule: Q04DX003 (ip), vehicle: water) was 169 % of control, the T/C (dose: 37.5 mg/kg/injection, schedule: Q04DX003 (ip), vehicle: water) was 116 % of control and the T/C (dose: 75.0 mg/kg/injection, schedule: Q04DX003 (ip), vehicle: water) was 95 % of control.

`Cc1c[n+]([O-])n(-c2ccccc2)n1` was tested, and the T/C [8] was 101 % of control, the T/C [9] was 97 % of control and the T/C [10] was 103 % of control.

For `O=C1NC2(CCN(Cc3ccccc3)CC2)Nc2ccccc21`, the T/C (dose: 50.0 mg/kg/injection, schedule: Q01DX005 (ip), vehicle: Klucel (hydroxypropylcellulose) (HPC)) was 99 % of control, the T/C (dose: 100.0 mg/kg/injection, schedule: Q01DX005 (ip), vehicle: Klucel (hydroxypropylcellulose) (HPC)) was 99 % of control and the T/C (dose: 200.0 mg/kg/injection, schedule: Q01DX005 (ip), vehicle: Klucel (hydroxypropylcellulose) (HPC)) was 97 % of control.

For `Cc1cc(/C=C2/OC(=O)c3ccccc32)cc(C)c1O`, the T/C (dose: 100.0 mg/kg/injection, schedule: Q04DX002 (ip), vehicle: saline) was 94 % of control, the T/C (dose: 200.0 mg/kg/injection, schedule: Q04DX002 (ip), vehicle: saline) was 97 % of control and the T/C (dose: 400.0 mg/kg/injection, schedule: Q04DX002 (ip), vehicle: saline) was 97 % of control.

For `N=C(N)c1ccc(NN=Nc2cccc3c2Oc2ccccc2O3)cc1`, the T/C [8] was 106 % of control, the T/C [9] was 103 % of control and the T/C [10] was 95 % of control.

With `O/N=C1\CN2CCC1CC2` the T/C [11] was 110 % of control and the T/C [12] was 105 % of control.

In the case of `C=CC(=O)NC(=O)Nc1ccccc1Cl`, the T/C (dose: 6.25 mg/kg/injection, schedule: Q01DX009 (ip), vehicle: Klucel (hydroxypropylcellulose) (HPC)) is reported as 102 % of control, the T/C (dose: 12.5 mg/kg/injection, schedule: Q01DX009 (ip), vehicle: Klucel (hydroxypropylcellulose) (HPC)) is reported as 106 % of control and the T/C (dose: 25.0 mg/kg/injection, schedule: Q01DX009 (ip), vehicle: Klucel (hydroxypropylcellulose) (HPC)) is reported as 109 % of control and 118 % of control.

With `O=C(Nc1ccccc1)Nc1ccc2c(c1)C(=O)CCCC2` the T/C [8] was 96 % of control, the T/C [9] was 93 % of control and the T/C [10] was 94 % of control.

`CC12CC3CC(C1)CC(Br)(C3)C2` was tested, and the T/C (dose: 50.0 mg/kg/injection, schedule: Q01DX009 (ip), vehicle: Klucel (hydroxypropylcellulose) (HPC)) was 103 % of control and 111 % of control, the T/C (dose: 100.0 mg/kg/injection, schedule: Q01DX009 (ip), vehicle: Klucel (hydroxypropylcellulose) (HPC)) was 100 % of control and the T/C (dose: 200.0 mg/kg/injection, schedule: Q01DX009 (ip), vehicle: Klucel (hydroxypropylcellulose) (HPC)) was 100 % of control.

With `COc1ccc([N+](=O)[O-])c(C#N)c1` the T/C (dose: 100.0 mg/kg/injection, schedule: Q04DX003 (ip), vehicle: saline) was 98 % of control, the T/C (dose: 200.0 mg/kg/injection, schedule: Q04DX003 (ip), vehicle: saline) was 93 % of control and the T/C (dose: 400.0 mg/kg/injection, schedule: Q04DX003 (ip), vehicle: saline) was 100 % of control.

With `CCCCCCC1OCN2CCCCC12` (stereo not given) the T/C [11] was 105 % of control, the T/C [12] was 107 % of control and the T/C [13] was 109 % of control.

`Nc1ncc2c(=O)c3c(ccc4ccccc43)oc2n1` was tested, and the T/C (dose: 12.5 mg/kg/injection, schedule: Q01DX009 (ip), vehicle: saline with Tween-80) was 96 % of control, the T/C (dose: 25.0 mg/kg/injection, schedule: Q01DX009 (ip), vehicle: saline with Tween-80) was 98 % of control and the T/C (dose: 50.0 mg/kg/injection, schedule: Q01DX009 (ip), vehicle: saline with Tween-80) was 90 % of control. The T/C (dose: 100.0 mg/kg/injection, schedule: Q01DX009 (ip), vehicle: saline with Tween-80) was 87 % of control.

With `FC(F)(F)C1(C(F)(F)F)SC(C(F)(F)F)(C(F)(F)F)S1` the T/C [11] was 104 % of control, the T/C [12] was 107 % of control and the T/C [13] was 104 % of control.

With `CCN(CC)CCn1cnc2c(=S)[nH]c(=S)[nH]c21` the T/C [7] was 95 % of control, the T/C (dose: 200.0 mg/kg/injection, schedule: Q01DX001 (ip), vehicle: saline with Tween-80) was 97 % of control and the T/C (dose: 400.0 mg/kg/injection, schedule: Q01DX001 (ip), vehicle: saline with Tween-80) was 97 % of control.
